Here are results for eight molecules from publication PMC7902086 (Toxicology letters, 2019).

Values joined by “and” are separate entries in the source; they are usually repeats but may differ in a detail not shown here. Identical values can stand only once.

One data set deals with CYP2C19 (Homo sapiens, UniProt P33261). The experiment in a line: CYP450 inhibition assay, S-mephenytoin 4′-hydroxylase in human liver microsomes. In kind it is in vitro ADME. Particulars: read-out: IC50, CYP2C19 S-Mephenytoin 4′-hydroxylase; human liver microsomes 0.1 mg/mL; mean of triplicate.
Data set [1] relates to CYP3A4/5. The experiment in a line: CYP450 inhibition assay, testosterone 6β-hydroxylase in human liver microsomes. It counts as in vitro ADME. The following applies: read-out: IC50, CYP3A4/5 Testosterone 6β-hydroxylase; human liver microsomes 0.1 mg/mL; mean of triplicate.
In data set [2] the test system is CYP3A4/5. The experiment in a line: CYP450 inhibition assay, midazolam 1′-hydroxylase in human liver microsomes. It counts as in vitro ADME. The following applies: read-out: IC50, CYP3A4/5 Midazolam 1′-hydroxylase; human liver microsomes 0.1 mg/mL; mean of triplicate. A general note: Liver microsomes are a subcellular fraction often used to study metabolism.
A further data set concerns the target CYP2D6 (Homo sapiens, UniProt P10635). Particulars: known CYP2D6 substrates; ref Obach et al., 2006; cited from earlier work.
The next data set concerns μ-opioid receptors. Particulars: ref Boyer et al., 2008; Kruegel et al., 2016; cited from earlier work.
For data set [3] the following is noted: deceased kratom users in the United States, autopsies; ref Gershman et al., 2019; cited from earlier work.
In the next data set the test system is CYP3A4. The following applies: in humans; ref Kamble et al., 2019; cited from earlier work.

CYP2C19, sequence (P33261 whole entry): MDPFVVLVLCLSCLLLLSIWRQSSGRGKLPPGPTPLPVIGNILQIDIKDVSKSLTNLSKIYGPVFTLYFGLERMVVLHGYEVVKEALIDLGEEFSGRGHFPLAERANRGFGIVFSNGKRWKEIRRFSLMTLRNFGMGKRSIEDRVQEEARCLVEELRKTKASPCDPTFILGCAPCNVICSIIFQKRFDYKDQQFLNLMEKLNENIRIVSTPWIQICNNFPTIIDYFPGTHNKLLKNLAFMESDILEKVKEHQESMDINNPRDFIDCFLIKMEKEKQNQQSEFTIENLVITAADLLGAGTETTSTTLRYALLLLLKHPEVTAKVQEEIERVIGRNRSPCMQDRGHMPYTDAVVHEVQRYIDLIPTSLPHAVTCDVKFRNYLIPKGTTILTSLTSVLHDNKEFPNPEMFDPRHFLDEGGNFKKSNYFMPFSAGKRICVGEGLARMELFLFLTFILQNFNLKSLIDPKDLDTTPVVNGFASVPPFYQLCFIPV
CYP2D6, sequence (P10635 whole entry): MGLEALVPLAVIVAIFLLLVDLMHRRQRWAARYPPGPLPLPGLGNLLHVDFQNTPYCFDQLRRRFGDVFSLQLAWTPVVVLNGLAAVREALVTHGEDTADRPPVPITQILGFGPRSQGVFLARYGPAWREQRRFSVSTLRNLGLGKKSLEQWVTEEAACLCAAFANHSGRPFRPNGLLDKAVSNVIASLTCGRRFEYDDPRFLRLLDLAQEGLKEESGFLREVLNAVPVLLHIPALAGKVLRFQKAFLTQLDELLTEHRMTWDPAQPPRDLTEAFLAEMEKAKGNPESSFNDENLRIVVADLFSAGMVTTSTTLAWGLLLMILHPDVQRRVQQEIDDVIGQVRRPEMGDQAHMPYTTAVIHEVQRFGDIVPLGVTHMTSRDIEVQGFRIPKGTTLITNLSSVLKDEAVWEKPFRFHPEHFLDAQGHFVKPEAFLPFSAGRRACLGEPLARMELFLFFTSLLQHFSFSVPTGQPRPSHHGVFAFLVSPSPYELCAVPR

Regarding `C=C[C@H]1CN2CCc3c([nH]c4cccc(OC)c34)[C@@H]2C[C@@H]1/C(=C\OC)C(=O)OC` [PAY, paynantheine], the IC50 on CYP2C19 was 38.4 µM; with CYP3A4/5 [1], greater than 45 µM; in the data set on CYP3A4/5 [2] it was 7.9 µM.
With `COCCc1ccc(OCC(O)CNC(C)C)cc1` (stereo not shown) [metoprolol], the “fm, CYP2D6” value on CYP2D6 was 0.8.
Regarding `CC[C@H]1CN2CCc3c([nH]c4cccc(OC)c34)[C@@H]2C[C@@H]1/C(=C\OC)C(=O)OC` [SPG, speciogynine], the figures for the IC50 on CYP2C19, with CYP3A4/5 [1] and in the data set on CYP3A4/5 [2] were 19.5 µM, greater than 45 µM and 13.5 µM, respectively.
On to `CC[C@@H]1CN2CC[C@@]3(O)C(=Nc4cccc(OC)c43)[C@@H]2C[C@@H]1/C(=C\OC)C(=O)OC` [7HMG, 7-hydroxymitragynine], for which the IC50 was 27.7 µM on CYP2C19, greater than 45 µM in the data set with CYP3A4/5 [1] and greater than 45 µM in the data set on CYP3A4/5 [2]. Besides, in the data set with μ-opioid receptors, the “activity at μ-opioid receptors” value is given as “partial agonists”.
With mitragynine [MTG], the serum concentration levels in data set [3] was 16 to 4800 ng/mL and 0.041–12.05 μM. Also, the “enzyme predominantly responsible for metabolism” value with CYP3A4 is “predominantly metabolized by CYP3A4”. Further, in the data set on μ-opioid receptors, the “activity at μ-opioid receptors” value was “partial agonists”.
As for `CC[C@@H]1CN2CCc3c([nH]c4cccc(OC)c34)[C@H]2C[C@@H]1/C(=C\OC)C(=O)OC` [SPC, speciocilliatine], the figures for the IC50 at CYP2C19, in the data set with CYP3A4/5 [1] and with CYP3A4/5 [2] were 8 µM, greater than 45 µM and 26.4 µM, respectively.
In the case of `CNCCCN1c2ccccc2CCc2ccccc21` [desipramine], the “fm, CYP2D6” value on CYP2D6 is 0.9.
Turning to `COc1ccc2c(c1)[C@]13CCCC[C@@H]1[C@H](C2)N(C)CC3` [dextromethorphan], the “fm, CYP2D6” value at CYP2D6 is 1.
